Laboratory results published in a melting point compilation (Tetko et al.).

Structure (SMILES)	melting point [°C]
NC(=O)c1cccc(OCC(=O)O)c1	206 to 208
O=C(O)c1nccnc1C(=O)Nc1ccc(F)cc1	177 to 179
NCCS(=O)(=O)Cc1ccccc1	76 to 78
CC(N)c1cc(F)ccc1N1CCC(O)CC1 (stereo not drawn)	138 to 140
COc1ccccc1NCC(=O)NN	103 to 105
Nc1nc(-c2c[nH]c3ccccc23)cs1	167 to 169
O=C(O)c1csc(-c2ccc(Cl)cc2Cl)n1	204 to 206
O=C1NCC(=O)N2CCCCC12 (stereo not drawn)	153 to 155
Cc1nn(-c2ccccc2F)c(C)c1N	59 to 61
Nc1nn(C(=O)c2ccccc2Br)c2ccccc12	224 to 226
O=C1CNC2CCCCC2N1 (stereo not drawn)	121 to 123
O=C(NC1CCCCC1)OCC(F)(F)F	78 to 82
Cc1ccccc1NC(=O)CC#N	133 to 135
O=C(CCl)NCc1ccc(C(=O)O)cc1	193 to 195
CC(C)(C)OC(=O)NCC#Cc1ccc(OCc2ccccc2)cc1	104 to 106
Nc1c(C(=O)c2cccs2)oc2ccccc12	173 to 175
Cc1nc2ccccc2n1CCN	235 to 237
CCCOc1ccc(C(F)(F)F)cc1NC(=O)CCl	73 to 75
CCN(CC)S(=O)(=O)c1cccc(NC(=O)CCl)c1	82 to 84
COc1ccc(C(=O)O)cc1S(=O)(=O)N(C)C	149 to 151
CC1c2ccccc2OC1C(=O)O (stereo not drawn)	121 to 123
CC(C)(C)OC(=O)c1ccc(C#N)cc1	74 to 76
CCCC(=O)Nc1cccc(CN)c1	54 to 56
O=C1CC(c2ccccc2)Nc2ccccc2N1 (stereo not drawn)	162 to 164

Structure (SMILES)	melting point [°C]
COC(=O)c1noc(C)c1C(C)=O	36 to 38
Sc1nnc(-c2cccs2)n1CC1CCCO1 (stereo not drawn)	107 to 108
COC(=O)Cn1ncc2c(=O)[nH]cnc21	212 to 214
NCCc1nc2ccccc2s1	47 to 49
Cc1[nH]c2ccccc2c1C1CCNCC1	222 to 224
CCOC(=O)Cc1nnc(S)n1Cc1ccco1	< 17
COc1ccc(CCCC(=O)O)c(OC)c1	46 to 48
Cn1c(S)nnc1COc1ccc(Cl)cc1	118 to 120
COC(=O)c1cccc(OCC(F)(F)F)c1	56 to 58
N#CC(N)c1ccc(Cl)cc1Cl (stereo not drawn)	80 to 82
Cc1cc(C)c2c(c1)NCCC2	34 to 36
CCOc1ccccc1OCCCC(=O)O	66 to 68
O=c1[nH]c2cnccc2n1Cc1ccccc1	213 to 215
Cc1nn(C)c(C)c1C(=O)C(=O)O	160 to 168
O=C(O)C1CC(O)CN1C(=O)c1ccc(F)cc1 (stereo not drawn)	206 to 208
CC(Oc1ccc(C(C)(C)C)cc1)C(=O)O (stereo not drawn)	93 to 95
Nc1cccc(NS(N)(=O)=O)c1	75 to 81
COc1ccc(C2(C)NC(=O)N(NC(=O)CCl)C2=O)cc1 (stereo not drawn)	124 to 126
N#Cc1cc2c([nH]c1=O)CCC(c1ccccc1)C2 (stereo not drawn)	279 to 281
CC(C)(C#N)Nc1ccccc1	89 to 91
CCS(=O)(=O)c1ccc(Cl)c(C(=O)O)c1	144 to 146
COc1ccc2nc(O)c(C(=O)O)cc2c1	309 to 311
O=C(O)CCCSc1nc2ccccc2[nH]1	120 to 122
O=C(O)CCc1nc2cc(C(F)(F)F)ccc2n(Cc2ccccc2)c1=O	171 to 173

Structure (SMILES)	melting point [°C]
C#CCNS(C)(=O)=O	56 to 58
Cc1ccc(-c2nnc(N)[nH]2)s1	222 to 224
CN(C)C(=O)c1c[nH]c2ccccc12	234 to 236
N#Cc1ccc(NC(=O)C(=O)O)cc1Cl	203 to 205
NC(=O)c1cc(S(=O)(=O)N2CCCC2)ccc1O	254 to 260
CN(C)c1ccc(C(=O)O)c(F)c1	199 to 201
CC1CN(c2ccc(N)cc2)CC(C)O1 (stereo not drawn)	73 to 75
CC(=O)c1ccc(S(=O)(=O)CC(F)(F)F)cc1	102 to 104
CC(=O)NCc1ccc(C(=O)CCl)o1	125 to 127
N#CC(C(=O)c1ccccc1)c1ccccc1 (stereo not drawn)	97 to 99
CC(C)(C)NS(=O)(=O)Cc1cccc(C(=O)O)c1	199 to 201
N#Cc1ccc(Cl)cc1NCC1CCOC1 (stereo not drawn)	114 to 116
COc1ccccc1NS(=O)(=O)c1ccc2oc(N)nc2c1	210 to 212
CC(C)(C)OC(=O)N1CCC(O)(Cc2cccc(Cl)c2)C1 (stereo not drawn)	109 to 111
O=C1NCCCCC1Oc1ccc(O)cc1 (stereo not drawn)	219 to 221
O=[N+]([O-])c1cc([N+](=O)[O-])c(Br)cc1F	92 to 94
N#CCN(CC#N)C(=O)CCCl	62 to 64
Cc1ccc(-c2nc(-c3ccccc3)sc2CC(=O)O)cc1	165 to 167
Cc1cc(/C=C(\C#N)C(=O)O)c(C)n1CCC(C)C	229 to 231
N#Cc1ccc(S(=O)(=O)CCCl)cc1	116 to 118
CCn1c(S)nc2ccsc2c1=O	286 to 288
CC(C)n1c(Cl)nnc1-c1ccccc1	129 to 131
O=C(O)c1cc2cccc(F)c2o1	242 to 244
NCc1ccc(-n2cnc3ccccc32)nc1	97 to 99

Structure (SMILES)	melting point [°C]
O=C1CN(C(c2ccccc2)c2ccccc2)C1	78 to 80
CC(Oc1cccc(C(C)(C)C)c1)C(=O)O (stereo not drawn)	67 to 69
CC(C)(Cc1ccccc1)C(=O)O	49 to 51
CC(C)N1N=C(C(=O)O)CCC1=O	131 to 133
O=C(O)CCOc1ccccc1F	112 to 114
CN(C)C(=O)Nc1ccc(C(=O)O)c(Cl)c1	191 to 193
Cc1ccccc1-c1nn[nH]n1	153 to 155
O=c1[nH]c2ccc(C(F)(F)F)cc2c(=O)o1	269 to 271
CC(C)(C)OC(=O)N1CCN(C(=O)C2CCCNC2)CC1 (stereo not drawn)	119 to 121
O=C(O)C1CCCCN1C(=O)C1CCCC1 (stereo not drawn)	121 to 123
COCCc1nc2cc(N)ccc2o1	44 to 46
O=C(CCCl)N(c1ccccc1)C1C=CS(=O)(=O)C1 (stereo not drawn)	122 to 124
NCCc1ccc(S(=O)(=O)N2CCCCC2)s1	74 to 76
NC(C(=O)O)c1ccccc1F (stereo not drawn)	229 to 231
NC(=O)c1ccc(OCC(=O)O)cc1	264 to 266
CC1CCN(C(=O)c2cccnc2Cl)CC1	96 to 98
Cn1cc(Cl)cc1C(=O)NN	168 to 170
O=c1ccc(=O)n(-c2ccc([N+](=O)[O-])cc2)[nH]1	308 to 310
Cc1ccc(OCCCC(=O)Nc2ccc(CN)cc2)cc1	97 to 99
CC(NC(N)=O)C(=O)O (stereo not drawn)	171 to 173
CC(C)NC(=O)C(=O)NN	158 to 160
Cc1cc2nc(Cl)c3ccccc3n2n1	138 to 140
COC(=O)CC(NC(=S)NC12CC3CC(CC(C3)C1)C2)C(=O)OC (stereo not drawn)	117 to 119
Nc1cccc(NC(=O)c2ccoc2)c1	120 to 122

Structure (SMILES)	melting point [°C]
NNc1ccc(S(=O)(=O)C(F)F)cc1	72 to 74
Cc1ccc(Cl)nc1CC(=O)O	120 to 122
CNS(=O)(=O)c1ccc(NCCOC)c(N)c1	111 to 113
NCc1ccc(C(=O)Nc2ccc(F)cc2)cc1	145 to 147
Cc1nc2n(c1CN1CCNCC1)CCCC2	111 to 113
Cc1nc(-c2ccsc2)ccc1C(=O)O	174 to 176
CC(C)C(=O)N1CCCCC1C(=O)O (stereo not drawn)	123 to 125
O=C(O)C1(Sc2ccccc2)CCCC1	65 to 67
O=C(CBr)c1ccc(S(=O)(=O)N2CCCC2)cc1	121 to 123
Nc1nc2ccccc2n1-c1ccccc1	148 to 150
CC(C)(C)Sc1ccc(C(N)=S)cn1	178 to 180
BrCc1cc(Br)c2c(c1)OCO2	123 to 125
CC(C)(C)OC(=O)N1CCc2nc(N)sc2C1	226 to 228
O=Cc1ccc(OCc2cccc(F)c2)cc1	45 to 47
Nc1cc(Cl)cc([N+](=O)[O-])c1O	152 to 154
Brc1ccccc1-c1nc2cccnc2[nH]1	196 to 198
Nc1sc2c(c1-c1nc3ccccc3[nH]1)CCCC2	175 to 177
O=C(c1cc(S(=O)(=O)Cl)c[nH]1)N1CCCC1	191 to 193
Nc1ccnn1Cc1ccc(Br)cc1	97 to 99
COc1cc(NC(=O)NN)c(OC)cc1Cl	168 to 170
O=[N+]([O-])c1ccc(Br)c2c1CNCC2	81 to 83
S=C1NCCO1	95 to 97
Cc1ccc(C2CNCCO2)c(C)c1 (stereo not drawn)	49 to 51
Nc1ccc2oc(=O)ccc2c1	159 to 161

Structure (SMILES)	melting point [°C]
Nc1cc(F)c(N2CCCC2)c(F)c1	94 to 96
CCOc1cc(C(=O)N2CCCC(C(=O)O)C2)cc(OCC)c1OCC (stereo not drawn)	183 to 185
CCOC(=O)c1cn[nH]c1S(N)(=O)=O	171 to 173
Cc1ccccc1C=NO	38 to 40
Nc1nc(-c2ccccc2Cl)co1	137 to 139
CCOC(=O)c1cc2c(nc1N)CCCC2	127 to 129
CC(=O)Nc1cc(S(=O)(=O)Cl)ccc1C	145 to 147
COc1ccc(Cn2nccc2N)c(OC)c1OC	71 to 75
CC(=O)Nc1cc(C(=O)CCl)ccc1O	188 to 190
Nc1ccc(Cl)c(C(=O)NCc2ccccc2F)c1	95 to 97
Cc1nc(-c2ccc(F)cc2)cs1	74 to 76
Cc1cc(F)cc(C(=O)O)c1N	191 to 193
OC1CNCC1N1CCCC1 (stereo not drawn)	82 to 84
Nc1c(C(=O)O)cc(F)cc1[N+](=O)[O-]	219 to 221
CC(C)Cn1cc(C(=O)O)c2ccccc21	151 to 153
CCOC(=O)CNCC(N)=O	70 to 72
O=C(c1ccc(F)cc1)N1CCCCC(Cl)C1=O (stereo not drawn)	143 to 145
CCOC(=O)c1cnc(SC)nc1N	110 to 120
NNC(=O)c1cc([N+](=O)[O-])c[nH]1	280 to 282
CC(=O)c1cncs1	64 to 66
Cc1cc(C)c(C)c(Oc2c(C(=O)O)c(C)nn2C)c1	215 to 217
COC(=O)C(F)c1nc2ccccc2c(=O)[nH]1 (stereo not drawn)	147 to 160
O=C(O)CNS(=O)(=O)c1ccc2c(c1)OCCCO2	75 to 77
